# Molecular target: T1, TGF-beta receptor type-1 (Homo sapiens, UniProt P36897)
# T1 sequence (P36897 whole entry): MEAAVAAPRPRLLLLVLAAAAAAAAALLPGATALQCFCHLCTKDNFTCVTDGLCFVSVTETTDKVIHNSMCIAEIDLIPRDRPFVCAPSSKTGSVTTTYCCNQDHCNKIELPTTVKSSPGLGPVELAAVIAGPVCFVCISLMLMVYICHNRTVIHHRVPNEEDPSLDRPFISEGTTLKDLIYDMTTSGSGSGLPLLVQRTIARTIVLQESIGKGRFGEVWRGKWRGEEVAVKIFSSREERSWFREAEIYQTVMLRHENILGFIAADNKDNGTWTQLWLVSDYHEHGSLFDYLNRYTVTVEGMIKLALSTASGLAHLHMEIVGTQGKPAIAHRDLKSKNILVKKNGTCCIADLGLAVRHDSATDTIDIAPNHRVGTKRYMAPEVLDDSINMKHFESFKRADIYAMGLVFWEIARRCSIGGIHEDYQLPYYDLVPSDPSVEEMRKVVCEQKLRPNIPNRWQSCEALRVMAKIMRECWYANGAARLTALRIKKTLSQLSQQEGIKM
row,IC50,SMILES
1,0.174 µM,C#Cc1ccc(NCc2nc(-c3ccc4c(c3)OCO4)c(-c3cccc(C)n3)[nH]2)cc1
2,0.046 µM,CCc1cccc(-c2[nH]c(CNc3ccc(C(N)=O)cc3)nc2-c2ccc3c(c2)OCO3)n1
3,9.29 µM,CCS(=O)(=O)c1ccc2c(-c3c(-c4ccccn4)nn4c3CCC4)ccnc2c1
4,0.398 µM,CN(C)CCCn1cnc2cc(-c3c(-c4ccccn4)nn4c3CCC4)ccc21
5,1.78 µM,Nc1nc(-c2cccc(Cl)n2)c(-c2ccnc3ccccc23)s1
6,0.151 µM,Fc1ccc(-c2nn3c(c2-c2ccnc4ccccc24)CCC3)nc1
7,0.088 µM,CCOc1ccc2c(-c3c(-c4cccc(C)n4)nn4c3CCC4)ccnc2c1
8,0.064 µM,CN(C)CC(=O)Nc1ccc2c(-c3c(-c4ccccn4)nn4c3CCC4)ccnc2c1
9,0.034 µM,COCCC(=O)Nc1ccc2c(-c3c(-c4ccccn4)nn4c3CCC4)ccnc2c1
10,0.059 µM,Nc1ccc2c(-c3c(-c4ccccn4)nn4c3CCC4)ccnc2c1
11,0.071 µM,CCc1cccc(-c2nn3c(c2-c2ccnc4ccccc24)CCC3)n1
12,0.04 µM,COC(=O)Nc1ccc2c(-c3c(-c4ccccn4)nn4c3CCC4)ccnc2c1
13,0.087 µM,CC(=O)Nc1ccc2c(-c3c(-c4ccccn4)nn4c3CCC4)ccnc2c1
14,0.048 µM,Cc1cccc(-c2nn3c(c2-c2ccnc4cc(Cl)ccc24)CCC3)n1
15,0.079 µM,O=C(Nc1ccc2c(-c3c(-c4ccccn4)nn4c3CCC4)ccnc2c1)OCCO
16,0.11 µM,CCSc1ccc2c(-c3c(-c4ccccn4)nn4c3CCC4)ccnc2c1
17,0.019 µM,c1ccc(-c2n[nH]cc2-c2ccc3ncccc3n2)nc1
18,0.255 µM,CN(C)CCCNC(=O)Nc1ccc2c(-c3c(-c4ccccn4)nn4c3CCC4)ccnc2c1
19,0.032 µM,O=C(CCO)Nc1ccc2c(-c3c(-c4ccccn4)nn4c3CCC4)ccnc2c1
20,0.104 µM,c1ccc(-c2nn3c(c2-c2ccnc4ccccc24)CCC3)nc1
21,0.027 µM,O=C(O)c1ccc(-c2cc(-c3c[nH]nc3-c3ccccn3)ccn2)cc1
22,0.119 µM,C#Cc1cccc(NCc2nc(-c3ccc4nccnc4c3)c(-c3cccc(CC)n3)[nH]2)c1
23,1.7 µM,Cc1cccc(-c2nn3c(c2-c2ccc4c(c2)ncn4C)CCC3)n1

row,SMILES,IC50
1,c1ccc(-c2n[nH]cc2-c2ccnc(-c3ccc(CNC4CCCOC4)cc3)c2)nc1 (stereo unspecified),0.047 µM
2,Cc1cccc(-c2[nH]c(NCc3ccc(C#N)cc3)nc2-c2ccc3c(c2)OCO3)n1,0.024 µM
3,Cc1cccnc1-c1nc(N)sc1-c1ccc2ncccc2n1,0.006 µM
4,Fc1ccc(C2C(c3ccncc3)NC3SCCN32)cc1 (stereo unspecified),50 µM
5,C#Cc1ccc(CNc2nc(-c3ccc4c(c3)OCO4)c(-c3cccc(C)n3)[nH]2)cc1,0.153 µM
6,Nc1nc(-c2cccc(Cl)c2)c(-c2ccc3ncccc3n2)s1 [GW780159X],0.013 µM
7,Cc1cccc(-c2[nH]c(CNc3ccc(C#N)cc3)nc2-c2ccc3c(c2)OCO3)n1,0.046 µM
8,Cc1cccc2ccc(-c3sc(N)nc3-c3ccccn3)nc12,0.03 µM
9,CN(C)CCNC(=O)Nc1ccc2c(-c3c(-c4ccccn4)nn4c3CCC4)ccnc2c1,0.018 µM
10,CCc1[nH]c(-c2ccc(OC)cc2)nc1-c1ccncc1 [SB-202474],30 µM
11,Nc1nc(-c2ccc(F)cc2)c(-c2ccc3ncccc3n2)s1 [GW785804X],0.011 µM
12,Cc1cccc(-c2[nH]c(CNc3ccc(C(N)=O)cc3)nc2-c2ccc3c(c2)OCO3)n1,0.021 µM
13,CN(C)CCCc1cccc(-c2cc(-c3c[nH]nc3-c3ccccn3)ccn2)c1,0.015 µM

# — ChEMBL document CHEMBL1155322, “Pharmacophore modeling and virtual screening for the discovery of new transforming growth factor-beta type I receptor (ALK5) inhibitors” (Eur J Med Chem, 2009)
